Experimental data reported in ChEMBL document CHEMBL1201862, “PubChem BioAssay data set” (2004).
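In this assay, cells in 96-well plates receive the compound at five concentrations for 48 hours. Endpoints are linearly interpolated between the surrounding concentrations. GI50: concentration for 50% inhibition of growth.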 Active and inactive are the calls of the source. Cut-off read from the data, not from the text of the source: active = GI50 up to about 1.1 µM and inactive = higher.

Assays:
Experiment in all cases: DTP human tumour cell line panel, 48 h
SF-268 = system: SF-268
K562 = system: K562
LOX IMVI = system: LOX IMVI
MCF7 = system: MCF7
OVCAR-4 = system: OVCAR-4
EKVX = system: EKVX
SK-MEL-28 = system: SK-MEL-28
Malme-3M = system: Malme-3M
OVCAR-3 = system: OVCAR-3
UACC-62 = system: UACC-62
SN12C = system: SN12C
MDA-MB-231 = system: MDA-MB-231
BT-549 = system: BT-549
NCI-H460 = system: NCI-H460
RXF 393 = system: RXF 393
HOP-92 = system: HOP-92
SK-OV-3 = system: SK-OV-3
SK-MEL-2 = system: SK-MEL-2
NCI/ADR-RES = system: NCI/ADR-RES
OVCAR-8 = system: OVCAR-8
A498 = system: A498
KM12 = system: KM12
SF-295 = system: SF-295
ACHN = system: ACHN
PC-3 = system: PC-3
SK-MEL-5 = system: SK-MEL-5
MDA-MB-435 = system: MDA-MB-435
SNB-19 = system: SNB-19
SW-620 = system: SW-620
MOLT-4 = system: MOLT-4
Hs-578T = system: Hs-578T
CAKI-1 = system: CAKI-1
SNB-75 = system: SNB-75
HT-29 = system: HT-29
HCT-116 = system: HCT-116
HOP-62 = system: HOP-62
TK-10 = system: TK-10
RPMI-8226 = system: RPMI-8226
UO-31 = system: UO-31
M14 = system: M14
DU-145 = system: DU-145
UACC-257 = system: UACC-257
U-251 = system: U-251
HCT-15 = system: HCT-15
786-0 = system: 786-0
OVCAR-5 = system: OVCAR-5
SF-539 = system: SF-539
T47D = system: T47D
IGROV-1 = system: IGROV-1
SR = system: SR
MDA-N = system: MDA-N
COLO 205 = system: COLO 205
A549 = system: A549
NCI-H226 = system: NCI-H226
NCI-H23 = system: NCI-H23
NCI-H522 = system: NCI-H522
HCC 2998 = system: HCC 2998
CCRF-CEM = system: CCRF-CEM
HL-60 = system: HL-60

N#CCCN(CCC#N)c1ccc(/C=C2\N=C(c3ccccc3)N(c3ccc(F)cc3)C2=O)cc1
GI50 (SF-268): > 100 µM (inactive)
GI50 (K562): > 100 µM (inactive)
GI50 (LOX IMVI): > 100 µM (inactive)
GI50 (MCF7): > 100 µM (inactive)
GI50 (OVCAR-4): > 100 µM (inactive)
GI50 (EKVX): > 100 µM (inactive)
GI50 (SK-MEL-28): > 100 µM (inactive)
GI50 (Malme-3M): > 100 µM (inactive)
GI50 (OVCAR-3): > 100 µM (inactive)
GI50 (UACC-62): > 100 µM (inactive)
GI50 (SN12C): > 100 µM (inactive)
GI50 (MDA-MB-231): > 100 µM (inactive)
GI50 (BT-549): > 100 µM (inactive)
GI50 (NCI-H460): > 100 µM (inactive)
GI50 (RXF 393): > 100 µM (inactive)
GI50 (HOP-92): > 100 µM (inactive)
GI50 (SK-OV-3): > 100 µM (inactive)
GI50 (SK-MEL-2): > 100 µM (inactive)
GI50 (NCI/ADR-RES): > 100 µM (inactive)
GI50 (OVCAR-8): > 100 µM (inactive)
GI50 (A498): > 100 µM (inactive)
GI50 (KM12): > 100 µM (inactive)
GI50 (SF-295): > 100 µM (inactive)
GI50 (ACHN): > 100 µM (inactive)
GI50 (PC-3): > 100 µM (inactive)
GI50 (SK-MEL-5): > 100 µM (inactive)
GI50 (MDA-MB-435): > 100 µM (inactive)
GI50 (SNB-19): > 100 µM (inactive)
GI50 (SW-620): > 100 µM (inactive)
GI50 (MOLT-4): > 100 µM (inactive)
GI50 (Hs-578T): > 100 µM (inactive)
GI50 (CAKI-1): > 100 µM (inactive)
GI50 (SNB-75): > 100 µM (inactive)
GI50 (HT-29): > 100 µM (inactive)
GI50 (HCT-116): > 100 µM (inactive)
GI50 (HOP-62): > 100 µM (inactive)
GI50 (TK-10): > 100 µM (inactive)
GI50 (RPMI-8226): > 100 µM (inactive)
GI50 (UO-31): > 100 µM (inactive)
GI50 (M14): > 100 µM (inactive)
GI50 (DU-145): > 100 µM (inactive)
GI50 (UACC-257): > 100 µM (inactive)
GI50 (U-251): > 100 µM (inactive)
GI50 (HCT-15): > 100 µM
GI50 (786-0): > 100 µM (inactive)
GI50 (OVCAR-5): > 100 µM (inactive)
GI50 (SF-539): > 100 µM (inactive)
GI50 (T47D): > 100 µM (inactive)
GI50 (IGROV-1): > 100 µM (inactive)
GI50 (SR): > 100 µM (inactive)
GI50 (MDA-N): > 100 µM (inactive)
GI50 (COLO 205): > 100 µM (inactive)
GI50 (A549): > 100 µM (inactive)
GI50 (NCI-H226): > 100 µM (inactive)

Oc1c(C2=NNC(c3ccc(Cl)cc3Cl)C2)ccc2ccccc12 (stereo unspecified)
GI50 (SF-268): 33 µM (inactive)
GI50 (K562): 23.1 µM (inactive)
GI50 (MCF7): 30.2 µM (inactive)
GI50 (OVCAR-4): 58.6 µM (inactive)
GI50 (SK-MEL-28): 45.7 µM (inactive)
GI50 (NCI-H23): 68.1 µM (inactive)
GI50 (NCI-H522): 24 µM (inactive)
GI50 (Malme-3M): 17.9 µM (inactive)
GI50 (OVCAR-3): 20.1 µM (inactive)
GI50 (UACC-62): 40.6 µM (inactive)
GI50 (SN12C): 32.6 µM (inactive)
GI50 (MDA-MB-231): 46.5 µM (inactive)
GI50 (BT-549): 69.2 µM (inactive)
GI50 (NCI-H460): 30.1 µM (inactive)
GI50 (RXF 393): 37.9 µM (inactive)
GI50 (HOP-92): 31.7 µM (inactive)
GI50 (SK-OV-3): 46.3 µM (inactive)
GI50 (SK-MEL-2): 35.8 µM (inactive)
GI50 (NCI/ADR-RES): 22 µM (inactive)
GI50 (HCC 2998): 34.5 µM (inactive)
GI50 (OVCAR-8): 29.4 µM (inactive)
GI50 (A498): 71.4 µM (inactive)
GI50 (KM12): 26.2 µM (inactive)
GI50 (SF-295): 28.3 µM (inactive)
GI50 (ACHN): 38.5 µM (inactive)
GI50 (PC-3): 31.6 µM (inactive)
GI50 (SK-MEL-5): 52 µM (inactive)
GI50 (MDA-MB-435): 22.8 µM (inactive)
GI50 (SW-620): 35.9 µM (inactive)
GI50 (MOLT-4): 5.7 µM (inactive)
GI50 (Hs-578T): 35.6 µM (inactive)
GI50 (CCRF-CEM): 5.26 µM (inactive)
GI50 (CAKI-1): 66.5 µM (inactive)
GI50 (SNB-75): 39.9 µM (inactive)
GI50 (HT-29): 31.4 µM (inactive)
GI50 (HCT-116): 33.6 µM (inactive)
GI50 (HOP-62): 38.7 µM (inactive)
GI50 (TK-10): 66.2 µM (inactive)
GI50 (RPMI-8226): 32 µM (inactive)
GI50 (UO-31): 54.3 µM (inactive)
GI50 (M14): 26.5 µM (inactive)
GI50 (DU-145): 64.9 µM (inactive)
GI50 (UACC-257): 42.3 µM (inactive)
GI50 (U-251): 32.5 µM (inactive)
GI50 (HCT-15): 34.9 µM
GI50 (786-0): 31.5 µM (inactive)
GI50 (OVCAR-5): 42.7 µM (inactive)
GI50 (SF-539): 30.5 µM (inactive)
GI50 (T47D): 62.2 µM (inactive)
GI50 (IGROV-1): 14.4 µM (inactive)
GI50 (SR): 8.38 µM (inactive)
GI50 (MDA-N): 19.5 µM (inactive)
GI50 (COLO 205): 32 µM (inactive)
GI50 (A549): 29 µM (inactive)
GI50 (NCI-H226): 50.4 µM (inactive)

O=c1oc2c(ccc3c(O)cccc32)c2c1CCCC2
GI50 (SF-268): 15 µM (inactive)
GI50 (K562): > 100 µM (inactive)
GI50 (LOX IMVI): 16.7 µM (inactive)
GI50 (MCF7): 42.2 µM (inactive)
GI50 (OVCAR-4): > 100 µM (inactive)
GI50 (EKVX): 33.8 µM (inactive)
GI50 (SK-MEL-28): > 100 µM (inactive)
GI50 (NCI-H23): 26.9 µM (inactive)
GI50 (NCI-H522): 40 µM (inactive)
GI50 (Malme-3M): 68.9 µM (inactive)
GI50 (OVCAR-3): > 100 µM (inactive)
GI50 (UACC-62): 4.71 µM (inactive)
GI50 (SN12C): > 100 µM (inactive)
GI50 (MDA-MB-231): 17.4 µM (inactive)
GI50 (BT-549): 15.1 µM (inactive)
GI50 (NCI-H460): 45.2 µM (inactive)
GI50 (RXF 393): 14.5 µM (inactive)
GI50 (HL-60): > 100 µM (inactive)
GI50 (HOP-92): 16.6 µM (inactive)
GI50 (SK-MEL-2): 3.52 µM (inactive)
GI50 (NCI/ADR-RES): 46 µM (inactive)
GI50 (HCC 2998): 5.61 µM (inactive)
GI50 (OVCAR-8): 30.6 µM (inactive)
GI50 (A498): 27.7 µM (inactive)
GI50 (KM12): > 100 µM (inactive)
GI50 (SF-295): 14.5 µM (inactive)
GI50 (ACHN): 26.8 µM (inactive)
GI50 (PC-3): > 100 µM (inactive)
GI50 (SK-MEL-5): 47.2 µM (inactive)
GI50 (MDA-MB-435): > 100 µM (inactive)
GI50 (SNB-19): 27.7 µM (inactive)
GI50 (SW-620): > 100 µM (inactive)
GI50 (MOLT-4): > 100 µM (inactive)
GI50 (Hs-578T): 7.46 µM (inactive)
GI50 (CCRF-CEM): > 100 µM (inactive)
GI50 (CAKI-1): 32.2 µM (inactive)
GI50 (SNB-75): 4.85 µM (inactive)
GI50 (HT-29): > 100 µM (inactive)
GI50 (HCT-116): > 100 µM (inactive)
GI50 (HOP-62): 18.9 µM (inactive)
GI50 (TK-10): > 100 µM (inactive)
GI50 (RPMI-8226): > 100 µM (inactive)
GI50 (UO-31): 21.1 µM (inactive)
GI50 (M14): > 100 µM (inactive)
GI50 (DU-145): > 100 µM (inactive)
GI50 (UACC-257): > 100 µM (inactive)
GI50 (U-251): 15 µM (inactive)
GI50 (786-0): 33.4 µM (inactive)
GI50 (OVCAR-5): > 100 µM (inactive)
GI50 (SF-539): 22.2 µM (inactive)
GI50 (T47D): 80.9 µM (inactive)
GI50 (IGROV-1): > 100 µM (inactive)
GI50 (SR): 4.55 µM (inactive)
GI50 (MDA-N): > 100 µM (inactive)
GI50 (COLO 205): > 100 µM (inactive)
GI50 (A549): 72.3 µM (inactive)
GI50 (NCI-H226): > 100 µM (inactive)
